Source: PMC9246256, “Structure-based optimization of type III indoleamine 2,3-dioxygenase 1 (IDO1) inhibitors” (Journal of Enzyme Inhibition and Medicinal Chemistry, 2022)
Several values for one entry are separate records, joined by “and”; a condition that tells them apart may be missing. Equal values may be shown once. Entries after “also recorded” stand apart in the source; their conditions may differ. Read-outs that look alike come from different tables or passages of the source.

Assays:
HEK 293 T cells [1] = test: Cell viability / cellular toxicity (DAPI staining, cytometry); type: cell-based, human; conditions: 7 h
Description: (§1) We tested the cellular hIDO1 inhibitory activity and toxicity of 30 active compounds at a single concentration (Figure 6 and Table 8). As some of the aniline derivatives reacted with Ehrlich’s reagent (p-dimethylaminobenzaldehyde, p-DMAB) used to quantify kynurenine, the kynurenine content of these samples was determined by HPLC. To be able to detect also weak inhibition, compounds were tested at the high concentration of 200 µM (Figure 6A and B, filled bars), except for less soluble compounds (52, 148, 149 and 153), which were tested at a concentration of 50 µM (Figure 6A and B, empty bars).
Following DMSO (negative control) or inhibitor treatments, apoptotic cells were detected by 4′,6-diamidino-2-phenylindole (DAPI) staining. Briefly, after 7 h of incubation, cells were washed with PBS, resuspended in PBS with 1 µg/mL DAPI and immediately analysed using a BD LSR II cytometer. A 405 nm laser with 450/50 nm bandpass filter was used to collect data.

hIDO1 [2] = target: T1, hIDO1 (Homo sapiens, UniProt P14902); test: Cellular hIDO1 inhibition (kynurenine production) in transiently transfected HEK 293 T cells; type: cell-based
T1 construct: The full ORF of hIDO1 was cloned into the mammalian expression vector pcDNA6/myc-His; myc-His (vector-encoded); host or cells: HEK 293 T
Description: as §1
The cDNA encoding hIDO1 (NCBI, NM 0021464.3) was purchased from Origene as pCMV6-Entry vector (RC206592). The full ORF of hIDO1 was cloned into the mammalian expression vector pcDNA6/myc-His from Invitrogen. Human embryonic kidney 293 T (HEK 293 T) cells were transiently transfected with the plasmid construct encoding hIDO1. A 75 cm^2 flask containing HEK 293 T cells at a confluency of 70% was transfected with jetPEI DNA transfection reagent (Polyplus-transfection), according to manufacturer’s protocol. A total of 20 µg of pcDNA-IDO1 along with 5 µg of pcDNA-GFP plasmid were used for the transfection; GFP was used to evaluate transfection efficiency prior to the cellular assays. 16–18 h post-transfection the 293 T cells were detached with trypsin, centrifuged, and re-suspended in 25 mL of DMEM medium without phenol red, supplemented with penicillin and streptomycin, 10% foetal bovine serum and 1 mM pyruvate (Gibco). Subsequently, 100 µL of cells were distributed to each well of two 96-well round-bottom plates that had been pre-loaded with 100 µL DMEM and the small organic test molecule in DMSO (for a final DMSO concentration of 2%). DMEM medium contains 78 µM L-Trp and was supplemented with 500 µM of L-Trp. Cells transfected with hIDO1 were incubated for 7 h at 37 °C in a CO2 incubator. The reaction was stopped in its linear phase by adding trichloroacetic acid (TCA) to the medium at a final concentration of 4%. Plates were centrifuged for 15 min at 4,000 rpm. 100 µL of supernatant was added to 100 µL of 2% (w/v) DMAB in glacial acetic acid. After 10 min the absorbance was measured at a wavelength of 480 nm to detect kynurenine formation. Alternatively, kynurenine content was determined by HPLC as done for the enzymatic assay.

[3] = Compound solubility (qualitative remarks); type: physicochemical
[4] = target: T2, purified recombinant IDO1 (Homo sapiens, UniProt P14902); test: Enzymatic IDO1 inhibition assay (ascorbate/methylene blue reduction system, HPLC detection of kynurenine); type: biochemical; conditions: for IC50: enzymatic, L-Trp 100 µM, 0.01% Triton X-100, 5% DMSO, 20 min at room temperature, pH 6.5, duplicates, read-out: IC50 [ μ M] (SD); for LE [kcal/mol/HA]: ligand efficiency, LE = -RT log(IC50)/number of heavy atoms, from enzymatic IC50
T2 construct: Full-length human IDO1 gene was cloned into the pET-28a vector; inferred from pET-28a vector and HisTrap purification; made in house; host or cells: E. coli Rosetta (DE3)
Description: Enzymatic IC50 values were measured with the ascorbate/methylene blue reduction system[85] in presence of a non-ionic detergent to reduce compound aggregation as described before[28]. Kynurenine and L-Trp concentrations were determined by HPLC through UV detection.
Full-length human IDO1 gene was cloned into the pET-28a vector and expressed in E. coli Rosetta (DE3) cells. […] The culture was harvested and frozen at −80 °C until further use. The frozen cells were lysed by sonication in 20 mM Tris pH 7, 400 mM NaCl, 1 mM MgCl2, 20 mM imidazole, 1 mM DTT, 0.5 mg/mL Lysozyme and Protease inhibitor. After centrifugation, the supernatant was loaded into a HisTrap HP column pre-equilibrated with buffer containing 20 mM Tris pH 7, 500 mM NaCl and 20 mM imidazole, and eluted with the same buffer containing 500 mM imidazole. Fractions containing IDO1 were pooled, concentrated, and injected on a size exclusion chromatography column (HiLoad Superdex S75 16/60) to increase purity. hIDO1 fractions were concentrated to 20 mg/mL in 20 mM Tris pH 7 and 150 mM NaCl.
The enzymatic inhibition assays were performed as described by Takikawa et al.[130] with some modifications. Briefly, the reaction mixture (100 µL) contained potassium phosphate buffer (100 mM, pH 6.5) ascorbic acid (20 mM), catalase (400 units/mL), methylene blue (10 µM), purified recombinant IDO1 (2.5 ng/µL), L-Trp (100 µM), Triton X-100 (0.01%) and DMSO (5 µL). The inhibitors were serially diluted 3-fold for at least 8 different concentrations. After incubation at room temperature for 20 min, the reaction was stopped in its linear phase by addition of trichloroacetic acid solution (40 mL, 30% w/v), and the samples were incubated at 50 °C for 30 min. After centrifugation, 80 µl of supernatant from each well were used for HPLC analysis. The mobile phase for HPLC analysis was composed of 50% (v/v) of methanol and 50% of sodium citrate buffer (40 mM, pH 2.4) containing 400 µM sodium dodecyl sulphate. […] All assays were carried out in duplicates. The activity (Act) of each compound was calculated as Act = RT log(IC50) in analogy to the relation between the binding free energy and the Ki value. The ligand efficiency (LE) was calculated as LE = −Act/NHA, where NHA is the number of non-hydrogen atoms (heavy atoms) in the compound.

HEK 293 T cells [5] = conditions: previously determined, 200 µM, cited from earlier work
hIDO1 [6] = target: T1, hIDO1; conditions: previously determined, cited from earlier work; for Inh. [%]: 200 µM; for IC50: read-out: IC50 [µM] (cellular)
IDO1 = conditions: cited from earlier work
[7] = ref 1 of Supporting Information (Röhrig et al. 2021)
[8] = ref 3 of Supporting Information (= main text ref 62)
[9] = ref 3 of Supporting Information (Röhrig et al. 2016)

T1 sequence (P14902 whole entry): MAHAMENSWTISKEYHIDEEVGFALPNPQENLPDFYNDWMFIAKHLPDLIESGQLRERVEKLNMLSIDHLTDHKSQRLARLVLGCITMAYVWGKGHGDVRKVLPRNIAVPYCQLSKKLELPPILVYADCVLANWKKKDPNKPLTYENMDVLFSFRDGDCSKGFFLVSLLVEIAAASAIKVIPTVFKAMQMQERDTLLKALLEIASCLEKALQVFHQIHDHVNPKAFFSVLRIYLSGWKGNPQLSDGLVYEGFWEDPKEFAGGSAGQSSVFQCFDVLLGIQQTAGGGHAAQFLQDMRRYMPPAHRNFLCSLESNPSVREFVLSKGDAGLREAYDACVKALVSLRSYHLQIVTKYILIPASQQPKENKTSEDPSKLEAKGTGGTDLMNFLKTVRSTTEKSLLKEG
T2 sequence (P14902 whole entry): as above

SMILES | melting point [°C] | IC50 [4] | LE [kcal/mol/HA] [4] [kcal/mol/HA] | also measured
Clc1cccc(-c2cnn[nH]2)c1 [Compound 30] | – | – | 0.73 | Tox. [%] (HEK 293 T cells [5]; [7]): 0%; Inh. [%] (hIDO1 [6]; [7]): 95%
O=C(c1cnn[nH]1)c1cc(Cl)ccc1O [Compound 111, (5-Chloro-2-hydroxyphenyl)(1H-1,2,3-triazol-5-yl)methanone] | 186 to 188 | 365 µM and 370 µM | 0.31 | Tox. [%] (HEK 293 T cells [1]; compound 200 µM): 0 (0) %; inhibition at 200 µM (hIDO1 [2]): 20%
CCOC(=O)c1[nH]nnc1-c1ccc(Cl)cc1 [Compound 65, reference compound] | – | > 1000 µM | – | IC50 (IDO1; values of Panda and co-workers, not reproduced here, read-out: published IC50 values): 0.39 µM
Oc1ccccc1-c1cnn[nH]1 [Compound 29] | – | – | 0.64 | Tox. [%] (HEK 293 T cells [5]; [7]): 0%; Inh. [%] (hIDO1 [6]; [7]): 95%
Clc1ccc(Nc2cnn[nH]2)cc1 [Compound 10, reference compound] | – | 56 µM | 0.44 | IC50 (IDO1; read-out: IC50 value in the original publication): 11.3 µM
Clc1cccc(-c2cnn[nH]2)c1CCc1ccccc1 [Compound 13] | – | 14 µM | 0.33 | Tox. [%] (HEK 293 T cells [5]; [8]): 71%; Tox. [%] (HEK 293 T cells [5]; ref 3 of Supporting Information (= main text ref 62), listed as MMG-0472): 70%; Inh. [%] (hIDO1 [6]; [9]): 76%
Nc1ccc(Cl)cc1-c1nnc[nH]1 [Compound 11] | – | – | 0.78 | Tox. [%] (HEK 293 T cells [5]; [7]): 0%; Inh. [%] (hIDO1 [6]; [7]): 100%
c1ccc(-c2cnn[nH]2)cc1 [Compound 19] | – | – | – | Tox. [%] (HEK 293 T cells [5]; [7]): 3%; Inh. [%] (hIDO1 [6]; [7]): 93%
Oc1cccc(O)c1-c1cnn[nH]1 [Compound 44, 2-(1H-1,2,3-triazol-5-yl)benzene-1,3-diol] | 257 to 259 | 13 µM | 0.51 | –
Clc1cc(Cl)c(-c2c[nH]nn2)cc1Cl [Compound 52, 4–(2,4,5-Trichlorophenyl)-1,2,3-triazole] | 190 to 192 | 33 µM | 0.44 | Tox. [%] (HEK 293 T cells [1]; compound 50 µM): 7.9 (1) %; inhibition at 50 µM (hIDO1 [2]): 44%; solubility (in words) [3]: less soluble
Clc1cccc(-c2cnn[nH]2)c1CCC1CCCC1 [Compound 40] | – | 9.5 µM | 0.36 | Tox. [%] (HEK 293 T cells [5]; [8]): 22%; Inh. [%] (hIDO1 [6]; [9]): 71%
Clc1cccc(-c2cnn[nH]2)c1Cl [Compound 47] | – | – | 0.49 | IC50 (hIDO1 [6]; ref 4 of Supporting Information (Röhrig et al. 2012)): > 100 µM
Cc1[nH]nnc1-c1cc(Cl)ccc1O [Compound 68, 4-Chloro-2–(5-methyl-1,2,3-triazol-4-yl)phenol] | 149 to 151 | 220 µM | 0.36 | –
Clc1cccc(-c2cnn[nH]2)c1/C=C/c1ccccc1 [Compound 41] | – | 49 µM | 0.29 | Tox. [%] (HEK 293 T cells [5]; [8]): 58%; Inh. [%] (hIDO1 [6]; [9]): 32%
O=C(c1cnn[nH]1)c1ccc(Br)cc1O [Compound 113, (4-Bromo-2-hydroxyphenyl)(1H-1,2,3-triazol-5-yl)methanone] | 192 to 194 | 8.2 µM | 0.46 | Tox. [%] (HEK 293 T cells [1]; compound 200 µM): 0 (0) %; inhibition at 200 µM (hIDO1 [2]): 36%
c1ccc(CCNc2ccccc2-c2cnn[nH]2)cc1 [Compound 28] | 129 to 132 | > 250 µM | – | –
Clc1cc(Cl)c(-c2c[nH]nn2)c(Cl)c1 [Compound 53, 4–(2,4,6-Trichlorophenyl)-1,2,3-triazole] | 236 to 238 | > 500 µM | – | –
c1ccc(CCOc2ccccc2-c2c[nH]nn2)cc1 [Compound 26, 4–(2-Phenethoxyphenyl)-1,2,3-triazole] | 91 to 93 | > 100 µM | – | –
c1ccc(-c2nnc[nH]2)cc1 [Compound 133] | – | – | – | Tox. [%] (HEK 293 T cells [5]; [7]): 0%; Inh. [%] (hIDO1 [6]; [7]): 0%

The next lines start with results.

melting point [°C] | IC50 [4] | LE [kcal/mol/HA] [4] [kcal/mol/HA] | SMILES | also measured
156 to 158 | 24 µM and 25 µM | 0.35 | CCCC(=O)Nc1ccc(Cl)cc1-c1nc[nH]n1 [Compound 148, N-(4-Chloro-2-(1H-1,2,4-triazol-3-yl)phenyl)butyramide] | Tox. [%] (HEK 293 T cells [1]; compound 50 µM): 17 (2) %; inhibition at 50 µM (hIDO1 [2]): 93%; solubility (in words) [3]: less soluble
207 to 209 | 8.6 µM and 8.7 µM | 0.49 | CNc1ccc(Cl)cc1-c1nc[nH]n1 [Compound 145, 4-Chloro-N-methyl-2-(1H-1,2,4-triazol-3-yl)aniline] | Tox. [%] (HEK 293 T cells [1]; compound 200 µM): 0 (0) %; inhibition at 200 µM (hIDO1 [2]): 93%
183 to 186 | 0.49 µM | 0.48 | O=C(Nc1ccc(Cl)cc1-c1nc[nH]n1)C1CC1 [Compound 149, N-(4-Chloro-2-(1H-1,2,4-triazol-3-yl)phenyl)cyclopropanecarboxamide] | Tox. [%] (HEK 293 T cells [1]; compound 50 µM): 19 (2) %; inhibition at 50 µM (hIDO1 [2]): 100%; solubility (in words) [3]: less soluble
170 to 172 | 515 µM and 510 µM | 0.37 | O=C(c1csnn1)c1cnn[nH]1 [Compound 119, (1,2,3-Thiadiazol-4-yl)(1H-1,2,3-triazol-5-yl)methanone] | Tox. [%] (HEK 293 T cells [1]; compound 200 µM): 0 (0) %; inhibition at 200 µM (hIDO1 [2]): 4.8%
– | – | 0.51 | Clc1cccc(-c2nnc[nH]2)c1 [Compound 136] | Tox. [%] (HEK 293 T cells [5]; [7]): 0%; Inh. [%] (hIDO1 [6]; [7]): 78%
– | – | 0.65 | Nc1ccccc1-c1nnc[nH]1 [Compound 139, 3–(2-aminophenyl)-1,2,4-triazole] | Tox. [%] (HEK 293 T cells [5]; [7]): 0%; Inh. [%] (hIDO1 [6]; [7]): 100%; IC50 (hIDO1 [6]; [7]): 4.6 µM
197 to 199 | > 100 µM | – | O=C(Nc1ccc(Cl)cc1-c1nc[nH]n1)C1CCCC1 [Compound 151, N-(4-Chloro-2-(1H-1,2,4-triazol-3-yl)phenyl)cyclopentanecarboxamide] | solubility (in words) [3]: strongly reduced solubilities
– | – | 0.51 | Oc1ccccc1-c1nnc[nH]1 [Compound 138] | Tox. [%] (HEK 293 T cells [5]; [7]): 6%; Inh. [%] (hIDO1 [6]; [7]): 52%
168 to 171 | 1.2 µM | 0.47 | CCC(=O)Nc1ccc(Cl)cc1-c1nc[nH]n1 [Compound 147, N-(4-Chloro-2-(1H-1,2,4-triazol-3-yl)phenyl)propionamide] | Tox. [%] (HEK 293 T cells [1]; compound 200 µM): 16 (1) %; inhibition at 200 µM (hIDO1 [2]): 100%
201 to 203 | > 100 µM | – | O=C(Nc1ccc(Cl)cc1-c1nc[nH]n1)C1CCC1 [Compound 150, N-(4-Chloro-2-(1H-1,2,4-triazol-3-yl)phenyl)cyclobutanecarboxamide] | solubility (in words) [3]: strongly reduced solubilities
– | 9.4 µM and 9.3 µM | – | O=C(Nc1ccc(Cl)cc1-c1nc[nH]n1)c1ccccc1 [Compound 153, N-(4-Chloro-2-(1H-1,2,4-triazol-3-yl)phenyl)benzamide] | Tox. [%] (HEK 293 T cells [1]; compound 50 µM): 5.9 (8) %; inhibition at 50 µM (hIDO1 [2]): 87%; solubility (in words) [3]: low solubility; also recorded: less soluble
